In ChEMBL document CHEMBL1201862, “PubChem BioAssay data set” (2004):
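Five concentrations, 48 hours, 96-well plates. Abbreviation: GI50, concentration required for 50% inhibition of growth.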 Activity calls are given as the source filed them. Rule as the data show it: active = GI50 up to about 1.1 µM and inactive = higher.

Assays:
Assay in all cases: inhibition of tumour cell growth, NCI panel, 48 h
[1] = test system: HOP-92
[2] = test system: 786-0
[3] = test system: HCT-15
[4] = test system: PC-3
[5] = test system: COLO 205
[6] = test system: M14
[7] = test system: CCRF-CEM
[8] = test system: MDA-MB-435
[9] = test system: SF-539
[10] = test system: HL-60
[11] = test system: TK-10
[12] = test system: OVCAR-5
[13] = test system: UACC-62
[14] = test system: SNB-75
[15] = test system: UACC-257
[16] = test system: MCF7
[17] = test system: NCI-H226
[18] = test system: CAKI-1
[19] = test system: KM12
[20] = test system: SNB-19
[21] = test system: MDA-MB-231
[22] = test system: DU-145
[23] = test system: SW-620
[24] = test system: EKVX
[25] = test system: NCI-H522
[26] = test system: SF-295
[27] = test system: RXF 393
[28] = test system: HOP-62
[29] = test system: ACHN
[30] = test system: SK-MEL-2
[31] = test system: T47D
[32] = test system: LOX IMVI
[33] = test system: NCI/ADR-RES
[34] = test system: NCI-H23
[35] = test system: Hs-578T
[36] = test system: K562
[37] = test system: BT-549
[38] = test system: IGROV-1
[39] = test system: SK-MEL-5
[40] = test system: UO-31
[41] = test system: U-251
[42] = test system: SR
[43] = test system: A498
[44] = test system: MDA-N
[45] = test system: MOLT-4
[46] = test system: HCT-116
[47] = test system: SN12C
[48] = test system: OVCAR-8
[49] = test system: SK-MEL-28
[50] = test system: Malme-3M
[51] = test system: A549
[52] = test system: HCC 2998
[53] = test system: HT-29
[54] = test system: OVCAR-3
[55] = test system: SF-268
[56] = test system: SK-OV-3
[57] = test system: NCI-H460
[58] = test system: OVCAR-4
[59] = test system: RPMI-8226

SMILES: C/C=C1/CN2CCC34c5ccccc5N5C(=O)C(C6CC78c9ccccc9N9C(=O)C=CC(C%10CC7N6C/C%10=C/C)C98)=CC(C1CC23)C54 (configuration not stated)
- GI50 [1]: 6.32 µM (inactive)
- GI50 [2]: 4.67 µM (inactive)
- GI50 [3]: 3.75 µM
- GI50 [4]: 2.1 µM (inactive)
- GI50 [5]: 5.09 µM (inactive)
- GI50 [6]: 5.52 µM (inactive)
- GI50 [7]: 0.501 µM (active)
- GI50 [8]: 6.28 µM (inactive)
- GI50 [9]: 1.11 µM (active)
- GI50 [10]: 0.183 µM (active)
- GI50 [11]: 7.52 µM (inactive)
- GI50 [12]: 10.2 µM (inactive)
- GI50 [13]: 7.69 µM (inactive)
- GI50 [14]: 6.62 µM (inactive)
- GI50 [15]: 5.62 µM (inactive)
- GI50 [16]: 2.13 µM (inactive)
- GI50 [17]: 7.13 µM (inactive)
- GI50 [18]: 8.71 µM (inactive)
- GI50 [19]: 9.55 µM (inactive)
- GI50 [20]: 7.87 µM (inactive)
- GI50 [21]: 2.32 µM (inactive)
- GI50 [22]: 7.71 µM (inactive)
- GI50 [23]: 1.59 µM (inactive)
- GI50 [24]: 6.64 µM (inactive)
- GI50 [25]: 3.11 µM (inactive)
- GI50 [26]: 9.2 µM (inactive)
- GI50 [27]: 1.73 µM (inactive)
- GI50 [28]: 8.59 µM (inactive)
- GI50 [29]: 7 µM (inactive)
- GI50 [30]: 6.53 µM (inactive)
- GI50 [31]: 11.1 µM (inactive)
- GI50 [32]: 10.3 µM (inactive)
- GI50 [33]: 8.34 µM (inactive)
- GI50 [34]: 5.98 µM (inactive)
- GI50 [35]: 8.11 µM (inactive)
- GI50 [36]: 1.62 µM (inactive)
- GI50 [37]: 8.77 µM (inactive)
- GI50 [38]: 4.43 µM (inactive)
- GI50 [39]: 5.83 µM (inactive)
- GI50 [40]: 2.84 µM (inactive)
- GI50 [41]: 5.92 µM (inactive)
- GI50 [42]: 0.667 µM (active)
- GI50 [43]: 8.81 µM (inactive)
- GI50 [44]: 5.47 µM (inactive)
- GI50 [45]: 1.11 µM (active)
- GI50 [46]: 5.53 µM (inactive)
- GI50 [47]: 5.53 µM (inactive)
- GI50 [48]: 2.06 µM (inactive)
- GI50 [49]: 5.41 µM (inactive)
- GI50 [50]: 7.82 µM (inactive)
- GI50 [51]: 8.15 µM (inactive)
- GI50 [52]: 5.9 µM (inactive)
- GI50 [53]: 2.44 µM (inactive)
- GI50 [54]: 5.6 µM (inactive)
- GI50 [55]: 6.89 µM (inactive)
- GI50 [56]: 9.79 µM (inactive)
- GI50 [57]: 6.65 µM (inactive)
- GI50 [58]: 7.01 µM (inactive)

SMILES: CC1(C)CCC2(C(=O)OC3OC(CO)C(O)C(O)C3O)CCC3(CO)C(=CCC4C5(C)CC(O)C(O)C(C)(C(=O)OC6OC(CO)C(O)C(O)C6O)C5CCC43C)C2C1 (configuration not stated)
- GI50 [1]: > 100 µM (inactive)
- GI50 [2]: > 100 µM (inactive)
- GI50 [3]: > 100 µM
- GI50 [4]: > 100 µM (inactive)
- GI50 [5]: > 100 µM (inactive)
- GI50 [6]: > 100 µM (inactive)
- GI50 [8]: > 100 µM (inactive)
- GI50 [9]: > 100 µM (inactive)
- GI50 [10]: 39 µM (inactive)
- GI50 [11]: > 100 µM (inactive)
- GI50 [12]: > 100 µM (inactive)
- GI50 [13]: > 100 µM (inactive)
- GI50 [14]: > 100 µM (inactive)
- GI50 [15]: > 100 µM (inactive)
- GI50 [16]: > 100 µM (inactive)
- GI50 [17]: > 100 µM (inactive)
- GI50 [18]: > 100 µM (inactive)
- GI50 [19]: > 100 µM (inactive)
- GI50 [20]: > 100 µM (inactive)
- GI50 [21]: > 100 µM (inactive)
- GI50 [22]: > 100 µM (inactive)
- GI50 [23]: > 100 µM (inactive)
- GI50 [24]: > 100 µM (inactive)
- GI50 [25]: > 100 µM (inactive)
- GI50 [26]: > 100 µM (inactive)
- GI50 [27]: > 100 µM (inactive)
- GI50 [28]: > 100 µM (inactive)
- GI50 [29]: > 100 µM (inactive)
- GI50 [30]: > 100 µM (inactive)
- GI50 [31]: > 100 µM (inactive)
- GI50 [32]: > 100 µM (inactive)
- GI50 [33]: > 100 µM (inactive)
- GI50 [34]: > 100 µM (inactive)
- GI50 [35]: > 100 µM (inactive)
- GI50 [36]: > 100 µM (inactive)
- GI50 [37]: > 100 µM (inactive)
- GI50 [38]: > 100 µM (inactive)
- GI50 [39]: > 100 µM (inactive)
- GI50 [40]: > 100 µM (inactive)
- GI50 [41]: > 100 µM (inactive)
- GI50 [42]: 44.8 µM (inactive)
- GI50 [43]: > 100 µM (inactive)
- GI50 [44]: > 100 µM (inactive)
- GI50 [45]: > 100 µM (inactive)
- GI50 [46]: > 100 µM (inactive)
- GI50 [47]: > 100 µM (inactive)
- GI50 [48]: > 100 µM (inactive)
- GI50 [49]: > 100 µM (inactive)
- GI50 [50]: > 100 µM (inactive)
- GI50 [51]: > 100 µM (inactive)
- GI50 [52]: > 100 µM (inactive)
- GI50 [53]: > 100 µM (inactive)
- GI50 [54]: > 100 µM (inactive)
- GI50 [55]: > 100 µM (inactive)
- GI50 [56]: > 100 µM (inactive)
- GI50 [57]: > 100 µM (inactive)
- GI50 [58]: > 100 µM (inactive)

SMILES: COc1cc(C[C@@H](C)N)cc(OC)c1
- GI50 [2]: > 100 µM (inactive)
- GI50 [3]: > 100 µM
- GI50 [4]: > 100 µM (inactive)
- GI50 [5]: > 100 µM (inactive)
- GI50 [6]: > 100 µM (inactive)
- GI50 [59]: > 100 µM (inactive)
- GI50 [7]: > 100 µM (inactive)
- GI50 [8]: > 100 µM (inactive)
- GI50 [9]: > 100 µM (inactive)
- GI50 [10]: > 100 µM (inactive)
- GI50 [11]: > 100 µM (inactive)
- GI50 [12]: > 100 µM (inactive)
- GI50 [13]: > 100 µM (inactive)
- GI50 [14]: 21.8 µM (inactive)
- GI50 [15]: > 100 µM (inactive)
- GI50 [16]: > 100 µM (inactive)
- GI50 [17]: > 100 µM (inactive)
- GI50 [18]: > 100 µM (inactive)
- GI50 [19]: > 100 µM (inactive)
- GI50 [20]: > 100 µM (inactive)
- GI50 [21]: > 100 µM (inactive)
- GI50 [22]: > 100 µM (inactive)
- GI50 [23]: > 100 µM (inactive)
- GI50 [25]: > 100 µM (inactive)
- GI50 [26]: > 100 µM (inactive)
- GI50 [27]: 43.7 µM (inactive)
- GI50 [28]: > 100 µM (inactive)
- GI50 [29]: > 100 µM (inactive)
- GI50 [30]: > 100 µM (inactive)
- GI50 [31]: > 100 µM (inactive)
- GI50 [32]: > 100 µM (inactive)
- GI50 [33]: > 100 µM (inactive)
- GI50 [34]: > 100 µM (inactive)
- GI50 [35]: > 100 µM (inactive)
- GI50 [36]: > 100 µM (inactive)
- GI50 [37]: > 100 µM (inactive)
- GI50 [38]: > 100 µM (inactive)
- GI50 [39]: > 100 µM (inactive)
- GI50 [40]: > 100 µM (inactive)
- GI50 [41]: > 100 µM (inactive)
- GI50 [42]: > 100 µM (inactive)
- GI50 [43]: > 100 µM (inactive)
- GI50 [44]: > 100 µM (inactive)
- GI50 [45]: > 100 µM (inactive)
- GI50 [46]: > 100 µM (inactive)
- GI50 [47]: > 100 µM (inactive)
- GI50 [48]: > 100 µM (inactive)
- GI50 [49]: > 100 µM (inactive)
- GI50 [50]: > 100 µM (inactive)
- GI50 [51]: > 100 µM (inactive)
- GI50 [52]: > 100 µM (inactive)
- GI50 [53]: > 100 µM (inactive)
- GI50 [54]: > 100 µM (inactive)
- GI50 [55]: > 100 µM (inactive)
- GI50 [56]: > 100 µM (inactive)
- GI50 [57]: > 100 µM (inactive)
- GI50 [58]: > 100 µM (inactive)
